Experimental data published in paper PMC3770646, “Isolation of an Orally Active Insecticidal Toxin from the Venom of an Australian Tarantula” (PLoS ONE, 2013).
Where two headings read alike, the source gives them in different places. Where a SMILES comes first, the peptide text is derived from it. Bridges are numbered along the chain shown (N, C = ends).

Key:
H. armigera = conditions: ref [61], cited from earlier work
Source text: Table 2 Comparison of OAIP-1 with pyrethroid insecticides. | column: Oral LD50 (nmol/g)

Helicoverpa armigera = experiment: Assay of synergism of imidacloprid and sOAIP-1 in agar diet; assay type: in vivo; conditions: H. armigera fed 100 pmol of the single insecticide in agar diet, mean ±SEM of three replicates of 10
Description: (§1) For feeding assays, an agar-based insect diet was created based on literature information (Table S1). Instead of using a separate preparation as a vitamin supplement, the commercially available children's vitamin Pentavite (Bayer, Leverkusen, Germany) was added after the agar had cooled below 65°C. Mealworms were fed 100 µL of the agar diet, with or without 20 µL toxin (or water for untreated controls). For the choice test, the same size Petri dish was divided in half and 50 µL of either toxin-treated or untreated agar was pipetted onto each half and mortality was recorded after 48 h. Cotton bollworms (Helicoverpa armigera, Lepidoptera: Noctuidae) were fed 5 µL toxin (or water for untreated controls) in 20 µL of agar diet, and maintained in 12-well tissue culture dishes. For assays of synergism using 100 pmol imidacloprid (Sigma-Aldrich) and 100 pmol sOAIP-1, 20 µL of one toxin or 10 µL of each toxin was incorporated into the agar diet for H. armigera. After all the treated diet was consumed, untreated diet was supplied ad libitum.
In all experiments, the mortality of untreated insects was used to correct the data for mortality due to injection of toxin or incorporation in the diet. […]

[1] = test system: mealworms (larval Tenebrio molitor); experiment: Injection of toxin into mealworms; assay type: in vivo; conditions: injection into metathoracic pleurite, corrected for control mortality, three replicates of 10
Description: Termites were fed a 20% α-cellulose matrix (Sigma-Aldrich, St. Louis, MO) mixed with water; the toxin was dissolved in water, and 20 µL was added to the cellulose matrix to a final concentration of 350 nmol/g, and then pipetted into Petri dishes. After the cellulose matrix had dried (to prevent termites from drowning in wet bait), nine worker termites and one soldier termite were added to each dish; each toxin dose was replicated three times. As a comparison, toxins were also injected into mealworms at a concentration of 350 nmol/g in three replicates of 10 insects.
Mealworms were purchased from Pisces Enterprises (Kenmore, QLD, Australia). Insects between 3rd and 4th instar (∼180 mg/individual) were used. For each mealworm, 2.6 µL of toxin diluted in ultrapure water was injected into the metathoracic pleurite. Injections were performed using a 29.5 gauge insulin syringe (B–D Ultra-Fine, Terumo Medical Corporation, Elkton, MD). Three replicates of 10 insects were used for each toxin concentration, and the same number of control insects were injected with ultrapure water and maintained under the same conditions.
Chicken feed was provided ad libitum for mealworm food. […] All insects were maintained at 24.5°C in the dark at ambient humidity in sterile Petri dishes. […]

[2] = test system: mealworms (larval Tenebrio molitor); experiment: Feeding assay, toxin in agar diet fed to mealworms; assay type: in vivo; conditions: corrected for control mortality, three replicates of 10
Description: Chicken feed was provided ad libitum for mealworm food. A Whatman filter paper saturated with distilled water was used to maintain humidity in all mealworm experiments except feeding assays, which used the synthetic orally active insecticidal peptide 1 (sOAIP-1) in the agar diet described below. The agar diet allowed a homogenous mixture of toxin and diet to be prepared so preferential feeding on untreated diet would not be possible. All insects were maintained at 24.5°C in the dark at ambient humidity in sterile Petri dishes.
as §1, with “For assays of synergism using 100 pmol imidacloprid (Sigma-Aldrich) and 100 pmol sOAIP-1, 20 µL of one toxin or 10 µL of each toxin was incorporated into the agar diet for H. armigera. After all the treated diet was consumed, untreated diet was supplied ad libitum.” left out

[3] = test system: mealworms (larval Tenebrio molitor); experiment: Feeding choice test, toxin-treated and untreated agar; assay type: in vivo
Description: as §1
In addition to toxicity assays, a choice test was conducted to determine whether sOAIP-1 is repellent. […] Conversely, if the toxin-treated agar was preferentially consumed, it might indicate that sOAIP-1 acts as an attractant.

[4] = In vitro stability in undiluted insect hemolymph; assay type: in vitro ADME, Helicoverpa armigera; conditions: undiluted H. armigera hemolymph, 30 µg peptide in 200 µL, ambient temperature (23°C), dark
Description: Fourth-instar H. armigera larvae were decapitated and the gut was removed using forceps. The carcasses were spun in a benchtop centrifuge (14,000 g for 10 min) to separate the hemolymph from exoskeleton. For each time point, 200 µL of undiluted hemolymph was mixed with 30 µg of sOAIP-1. The hemolymph/sOAIP-1 solution was maintained in the dark at room temperature, and immediately before RP-HPLC analysis the hemolymph/sOAIP-1 solution was again spun in a benchtop centrifuge (14,000 g for 10 min). After centrifugation, 30 µg of a control peptide, ω-HXTX-Hv1a, was added to aid quantification and the sample was filtered using a […] filter. The toxins were separated by RP-HPLC using a linear acetonitrile gradient (5–40% over 40 min), and the identity of each toxin was confirmed using mass spectrometry. The percentage of intact sOAIP-1 present at each time point was determined by comparing the area of the sOAIP-1 peak to that at zero time, both measured relative to the area of the ω-HXTX-Hv1a peak.

[5] = pyrethroid-resistant strain BK99R9 (R)

SMILES	Oral LD50 (H. armigera; [5]) [nmol/g]	Oral LD50 (H. armigera; susceptible strain BK77 (S)) [nmol/g]	mortality at 48 h (Helicoverpa armigera) [%]	further results
Cc1c(COC(=O)[C@@H]2[C@H](/C=C(\Cl)C(F)(F)F)C2(C)C)cccc1-c1ccccc1 (racemic) [Bifenthrin]	20.6	1.1	–	–
CC1(C)[C@H](C(=O)O[C@H](C#N)c2cccc(Oc3ccccc3)c2)[C@@H]1C=C(Br)Br [Deltamethrin]	0.46	0.35	–	–
CCOc1ccc(C(C)(C)COCc2cccc(Oc3ccccc3)c2)cc1 [Etofenprox]	55.9	0.31	–	–
CC(C)C(C(=O)OC(C#N)c1cccc(Oc2ccccc2)c1)c1ccc(Cl)cc1 (centres unmarked) [Fenvalerate]	41.9	7.8	–	–
O=[N+]([O-])NC1=NCCN1Cc1ccc(Cl)nc1 [imidacloprid]	–	–	31±3	–
CC[C@H](C)[C@@H]1NC(=O)[C@@H]2CSSC[C@H](NC(=O)[C@@H](N)CC(=O)O)C(=O)NCC(=O)N[C@@H](Cc3c[nH]cn3)C(=O)N[C@@H](CC(C)C)C(=O)N[C@@H](Cc3c[nH]cn3)C(=O)N[C@@H](CC(=O)O)C(=O)N3CCC[C@H]3C(=O)N[C@H]3CSSC[C@H](NC(=O)[C@H](CCC(N)=O)NC(=O)[C@H](CC(C)C)NC(=O)CNC1=O)C(=O)N[C@@H](CCCNC(=N)N)C(=O)N[C@@H](Cc1ccc(O)cc1)C(=O)NCC(=O)N[C@@H](CCCCN)C(=O)N[C@H](C(=O)N[C@@H](CC(C)C)C(=O)N[C@H](C(=O)N[C@@H](CCCNC(=N)N)C(=O)O)C(C)C)CSSC[C@H](NC(=O)[C@H]([C@@H](C)O)NC(=O)[C@H](CCCNC(=N)N)NC(=O)[C@H](Cc1c[nH]cn1)NC(=O)CNC(=O)[C@@H]1CCCN1C(=O)[C@H](CCCNC(=N)N)NC(=O)[C@H](CC(=O)O)NC(=O)[C@H](CC(N)=O)NC(=O)[C@@H]1CCCN1C3=O)C(=O)N2 [sOAIP-1] (H-DCGHLHDPCPNDRPGHRTCCIGLQCRYGKCLVR-OH; disulfide 2-20, 9-25, 19-30; N-terminus and C-terminus assumed)	–	–	4±3	LD50, injected toxin [1]: 1.84 ± 0.8 nmol/g; LD50, oral administration [2]: 170.5 ± 0.2 nmol/g; mortality at 48 h in choice test ([3]; mealworms offered toxin-treated and untreated agar, 1 pmol toxin, three replicates of 10): no mortality; repellent or attractant effect ([3]; mealworms, choice test compared with non-choice test): neither a repellent that repels insects nor an attractant; remaining at 24 h ([4]; cerebrospinal or other body fluid, 24 h, RP-HPLC peak area relative to ω-HXTX-Hv1a, read-out: remained intact): ~40%; metabolised at 72 h ([4]; cerebrospinal or other body fluid, 72 h, RP-HPLC peak area relative to ω-HXTX-Hv1a, read-out: peptide degraded): 90%; remained intact ([4]; one-week incubation, RP-HPLC): none remained intact
